Experimental data taken from US7045502B2, “Use of melagatran for the manufacture of a medicament for the treatment of Type 1 diabetes mellitus” (AstraZeneca AB, priority 2002, dated 2006).
“Also recorded” adds a separate entry of the source.

What was measured:
[1] = system: human islets in ABO-compatible blood (IBMIR); experiment: Tubing loop model: human islets perfused with fresh ABO-compatible human blood (IBMIR); format: cell-based
Text: (§1) Pancreases were obtained from cadaver donors after consent was obtained either from the organ donor registry or from relatives. The organs were obtained from three female and two male normoglycemic donors (aged 59–85 years, three with blood group 0 and two with blood group A). The islets were isolated at the Division for Clinical Immunology at the University of Uppsala using a modification of previously described semiautomated digestion-filtration methods (Brandhorst et al, Cell Transplant., 7, 489 (1998) and Ricordi et al, Diabetes, 37, 413 (1988)). This isolation procedure was followed by further purification on a continuous density gradient in a refrigerated COBE 2991 centrifuge (COBE Blood Component Technology, Lakewood, Colo., USA). The islets were placed in untreated culture flasks and maintained in suspension culture at 37° C. (5% CO2) for. 1 to 5 days. The culture medium (CMRL 1066; ICN Biomedicals, Costa Mesa, Calif.) was changed every other day. The volume and purity of the islets were determined by microscopic sizing on a grid after staining with diphenylthiocarbazone. The purity of the islet preparations used in this study ranged from 40% and 95% (70±6.3%) (amount of endocrine compared to exocrine/duct tissue in the preparation; mean ±SD). Viability was assessed in terms of insulin secretion in response to a glucose challenge in a dynamic perfusion system (in 1.67 mmol/L glucose, then in 16.7 mmol/L, and finally back to 1.67 mmol/L).
All materials that came in contact with whole blood were furnished with a Corline heparin surface (Corline, Uppsala, Sweden) according to the manufacturer's recommendation (see J. Clin. Immunol., 16, 222 (1996)). The surface concentration of heparin was 0.5 μg/cm^2, corresponding to approximately 0.1 U/cm^2, with an antithrombin binding capacity of 2–4 pmol/cm^2.
Fresh human blood, obtained from healthy volunteers who had received no medication for at least 14 days, was collected in surface-heparinized 60-mL syringes (18 gauge, Microlance; Becton Dickinson, Franklin Lakes, N.J.). The cannulae of the syringes were connected to surface-heparinized-silicon tubing. During sampling, the syringes were rotated continuously.
(§2) A modification of the model previously described was used (see Bennet et al, Diabetes, 48, 1907 (1999), Gong et al, J. Clin. Immunol., 16, 222 (1996) and Larsson et al, Immunophamnacology, 38, 119 (1997)). This device consisted of loops made of PVC (diameter, 6.3 mm; length, 390 mm) whose inner surface was furnished with immobilized heparin. The tubing was held together with a specially designed heparinized connector. A circular loop was formed when the ends of the connector were tightly pushed into the lumen of the tubing ends. A rocking apparatus, placed in a 37° C. incubator, was used to generate blood flow inside the loops. The loops were rocked at a setting that prevented the blood from coming into contact with the connectors. Up to twelve devices could be rocked at the same time. Ten 60-min islet experiments were performed, with islets isolated from five different donors. Melagatran (Astraeneca R&D Mölndal, Sweden), dissolved in 5 mM citrate buffer containing 0.15 M NaCl, pH 5.5, was tested at 0, 0.4 μM, 1 μM, 4 μM, and 10 μM. For each experiment, two loops of fresh human blood without islets, one containing CMRL 1066 (GibcoRBL, USA) and one containing 10 μM melagatran, were included as controls. Fresh ABO-compatible human blood from the same donor (5 mL) was added to each loop. The loops were placed on the rocking device for a 10-min preincubation with melagatran or citrate buffer. Thereafter, the loops were opened, and 150 μL of CMRL 1066, with or without 4 μL of islets (approximately 4,000 IEQ), was added to the loops, followed by another 60-min incubation on the rocking device at 37° C. Blood glucose levels were measured with a glucometer (Glucometer Elite; Bayer Diagnostics, Leverkusen, Germany) before the perfusion. […]

complement system = experiment: Activation of complement in serum in wells of microtiter plates; format: biochemical; settings: human serum, no islets, 0 to 10 μM, 30 min, 37° C.
Protocol: The direct effect of melagatran on the complement system was studied using a method in which serum was incubated in the wells of microtiter plates (Nilsson et al, Mol. Immunol., 30, 211 (1993)). Serum (100 μL) was added to each well of a 96-well microtiter plate together with melagatran at a final concentration of 0, 0.4, 1, 4, or 10 μM. After a 30-min incubation at 37° C., the serum was transferred to tubes containing EDTA (final concentration, 10 mM). These samples were stored at −70° C. before analysis of the complement fragment C3a (see below). In order to detect bound C3 fragments, the wells of the microtiter plates were washed with PBS containing 0.05% (v/v) TWEEN 20 and incubated with 100 μL of horseradish peroxidase (HRP)-conjugated anti-C3c (DAKO. AS, Glostrup, Denmark) for 60 min at 37° C. The binding of antibody was detected by the addition of 1,2-phenylendiamine dihydrochloride (Fluka, Switzerland), and the staining was monitored at 492 nm.
EDTA-plasma was analyzed as previously described (Nilsson Ekdahl et al, Scand. J. Immunol., 35, 85 (1992)). Monoclonal antibody 4SD17.3 was used as capture antibody. Bound C3a was detected with biotinylated polyclonal anti-C3a followed by HRP-conjugated streptavidin (Amersham, Buckinghamshire, UK). Zymosan-activated serum, calibrated against a solution of purified C3a, served as a standard, and the values are given as ng/mL.

human islets [2] = experiment: Islet perfusion system (islet function, insulin secretion); format: cell-based; settings: 10 μM melagatran
Text: as §1, with “The purity of the islet preparations used in this study ranged from 40% and 95% (70±6.3%) (amount of endocrine compared to exocrine/duct tissue in the preparation; mean ±SD).” left out, “mmol/L). […]” for “mmol/L).”

human islets [3] = experiment: Immunohistochemical staining of human islets after perfusion in the tubing loop model; format: cell-based; settings: 10 μM melagatran
Text: as §2, with “perfusion. After every perfusion the loop contents were filtered through 70 μm-diameter filters (Filcons, Cuptype; DAKO, Denmark). Both macroscopic blood clots and tissue recovered on the filters were frozen in liquid nitrogen for immunohistochemical staining. For immunohistochemical comparison, non-perfused islets were also frozen and stained by the same procedure.” for “perfusion.”

[4] = islets, 10 μM melagatran, 60 min perifusion with ABO-compatible blood, mean ± SEM, n=10
[5] = islets, 10 μM melagatran, 60 min perifusion with ABO-compatible blood, plasma, mean ± SEM, n=10

## N=C(N)c1ccc(CNC(=O)[C@@H]2CCN2C(=O)[C@H](NCC(=O)O)C2CCCCC2)cc1 [melagatran, HOOC—CH2—(R)Cgl-Aze-Pab-H]
[1]; 4 μM melagatran, FIG. 1B
  FXIa-AT versus medium control: decreased to nearly the same level as the medium control
  TAT versus medium control: decreased to nearly the same level as the medium control
[1]; 0.4 to 10 μM, 60 min
  Cell consumption and cascade system activation: diminished cell consumption and cascade system activation in a dose-dependent manner
[1]; at ≧4 μM, FIG. 1A
  Release of β-TG: normalized
[1]; compared with 4 μM needed for TAT and FXIa-AT, FIG. 1B
  Inhibition of prothrombin fragment 1+2 formation: required higher doses
[1]; in vitro
  Inhibition of IBMIR (overall): almost completely inhibits IBMIR; also recorded: abrogated IBMIR
[1]; [4]
  Granulocytes: 3.7 ± 0.3 ×10^9/L
  Lymphocytes: 2.0 ± 0.1 ×10^9/L
  Monocytes: 0.6 ± 0.1 ×10^9/L
  Platelets: 170 ± 8.2 ×10^9/L
[1]; [5]
  C3a: 510 ± 50 ng/mL
  FXIa-AT: 0.9 ± 0.6 µmol/L
  Insulin: 1500 ± 350 mU/L
  Prothrombin F1 + 2: 110 ± 28 nmol/L
  TAT: 890 ± 160 µg/L
  sC5b-9: 140 ± 17.0 AU/mL
  β-TG: 1300 ± 200 IU/mL
[1]; tubing loop with islets, 0 to 10 μM, FIG. 2
  Complement activation product C3a: inhibited
[1]; tubing loop, 60 min
  Concentration at which an effect on most parameters was already observed: 0.4 µM
[1]; tubing loop, 60 min, FIGS. 1A, 1C
  Concentration at which cell counts were fully restored: ≥ 4 µM
Complement system
  Binding of C3 fragments to the polystyrene surface: no effect
  Generation of C3a: no effect
Human islets [2]
  Insulin release on perfusion of islets: did not induce insulin release
Human islets [2]; glucose 16.7 mmol/L
  Subsequent glucose stimulation of islets: normal
Human islets [3]; 60 min perfusion with fresh human blood
  Clot formation around islets: no signs of clot formation
Human islets [3]; 60 min perfusion, anti-CD11b staining
  CD11b+ cells penetrated into the islets: only a few
Human islets [3]; 60 min perfusion, anti-CD41a staining
  CD41+ platelets surrounding the islet surface: almost no
